Experimental data published in paper PMC7934871 (JCI Insight, 2021).

How the values were obtained:
HCT116 xenograft tumors = assay: HCT116 xenograft in NSG mice, peritumoral treatment; type: in vivo, mouse; settings: HCT116 s.c. in NSG mice, 1 mg/kg peritumoral every day, n = 4
Description: Mouse care and experimental procedures were performed under pathogen-free conditions in accordance with established institutional guidance and approved IACUC protocols from Research Animal Care Committee of the City of Hope. For s.c. tumor challenge, 5 × 10^6 HCT116 cells were injected into NSG mice from The Jackson Laboratory or animal resource core facility at the City of Hope. After tumors reached an average size of 80~100 mm^3, mice were locally or intravenously treated with 1 mg/kg of PO- or PS-peptides (Anaspec) every day or every other day. Control animals were treated with the equal volume of HBSS (Invitrogen, Thermo Fisher Scientific). Tumor growth was measured by a digital caliper every other day. […] Lungs were then analyzed for immune responses by immunostaining followed by confocal imaging. […] Tumor growth was measured by a digital caliper every other day. […]
(B) PS-acet.-STAT3 peptide downregulates STAT3 phosphorylation, assessed by Western blotting using tumor homogenates prepared from tumors shown in A.
(C) mRNA levels for CASP9, BIRC5 and BCL2L1 in the same tumor tissues described above were assessed by qRT-PCR. […]
(D) Treatments with PS-acet.-STAT3 peptide induced cell death, indicated by H&E staining (upper panel). […] Right panels represent quantification of Ki-67 protein levels and mean of vessel diameter (data include 5 fields of view per group). […]

STAT3 = STAT3 (Homo sapiens, UniProt P40763); assay: STAT3 protein stability after cycloheximide; type: cell-based; parameters: protein stability of STAT3 in HCT 116 cells; endogenous in cells; host or cells: HCT116; settings: HCT116, 1 µM peptide pre-incubated 2 hours, 0-2 hours, Western blotting, n = 3
Sequence of STAT3 (P40763 whole entry): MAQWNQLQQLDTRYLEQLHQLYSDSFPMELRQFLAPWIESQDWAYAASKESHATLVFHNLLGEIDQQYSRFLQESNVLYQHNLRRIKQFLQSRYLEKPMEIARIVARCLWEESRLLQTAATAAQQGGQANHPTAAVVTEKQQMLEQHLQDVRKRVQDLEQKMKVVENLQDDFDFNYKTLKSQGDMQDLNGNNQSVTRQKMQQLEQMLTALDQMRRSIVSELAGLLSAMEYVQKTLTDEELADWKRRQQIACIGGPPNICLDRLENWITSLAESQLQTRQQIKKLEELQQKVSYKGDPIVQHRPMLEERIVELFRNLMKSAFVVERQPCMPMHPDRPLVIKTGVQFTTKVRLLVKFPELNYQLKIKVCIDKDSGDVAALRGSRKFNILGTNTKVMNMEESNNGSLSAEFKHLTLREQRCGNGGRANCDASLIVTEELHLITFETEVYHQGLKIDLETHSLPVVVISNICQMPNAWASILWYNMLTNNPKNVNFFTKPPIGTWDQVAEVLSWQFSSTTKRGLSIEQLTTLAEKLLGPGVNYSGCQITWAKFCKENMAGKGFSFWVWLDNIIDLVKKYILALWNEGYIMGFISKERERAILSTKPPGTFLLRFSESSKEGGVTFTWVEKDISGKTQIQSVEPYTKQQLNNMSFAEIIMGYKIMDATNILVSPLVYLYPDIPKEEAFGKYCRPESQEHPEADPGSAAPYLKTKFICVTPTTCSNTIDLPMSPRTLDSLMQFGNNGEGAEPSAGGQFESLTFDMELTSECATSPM
Description: (H) The protein stability of STAT3 in HCT 116 cells was measured at different time points as indicated following cycloheximide (CHX) treatment. The cells were pre-incubated with 1 µM of PS-acet.-STAT3 pept. for 2 hours before adding […] of CHX. The protein level of STAT3 was detected by Western blotting. The quantification was analyzed by protein band intensity od STAT3 and actin by ImageJ software. n= 3 independent experiments. SD is shown. Two-way ANOVA; ns, not significant.
Aftabizadeh et and Li al., Figure S5

PDIPKEEAFGK685(Ac)YCRPESQEHPC-linker-T*C*C*A*T*G*A*G*C*T*T*C*C*T*G*A*T*G*C*T [PS-acet.-STAT3 peptide]
tumor growth (HCT116 xenograft tumors): antitumor effects | protein stability of STAT3 (STAT3): not affected
